The test system of assay [1] is C. jejuni. As to the kind of experiment: Kill or inhibit growth/proliferation; morphology, biofilm and growth disruption (Tables 5, 6). Further: test concentration or dose not given here. It is filed as cell-based, Campylobacter jejuni. Also noted: key: A: Peptide aggregates; B: Less hyphal formation; Clumps; Diffuse clumps and small polyps; F: Diffuse growth; H: Thin; I: Growth inhibition; Microcolony formation; Rippled; Small polyps; Thick; W: Halo formation on top, microlonies on bottom.

In assay [2] the test system is S. epidermidis. Described as above. It is filed as cell-based, Staphylococcus epidermidis. Also noted: key: A: Peptide aggregates; B: Less hyphal formation; Clumps; Diffuse clumps and small polyps; F: Diffuse growth; H: Thin; I: Growth inhibition; Microcolony formation; Rippled; Small polyps; Thick; W: Halo formation on top, microlonies on bottom.
For assay [3], the system named is B. subtilis. The assay is described as above. It counts as cell-based, Bacillus subtilis. Also noted: key: A: Peptide aggregates; B: Less hyphal formation; Clumps; Diffuse clumps and small polyps; F: Diffuse growth; H: Thin; I: Growth inhibition; Microcolony formation; Rippled; Small polyps; Thick; W: Halo formation on top, microlonies on bottom. Further: test concentration or dose not given here.
The subject of assay [4] is microorganisms. As to the kind of experiment: Peptides having multiple activities (targeting/binding, antimicrobial, growth or phenotype altering). From the text: In certain embodiments, peptides described herein can have multiple activities. Thus for example, a peptide can have both binding/targeting activity and antimicrobial activity. Such peptides can be used, e.g., in a chimeric construct, for any or all of these properties. Thus, for example, a peptide designated “B” in Table 8 can be used as a targeting peptide. If it is also designated G or M it can also be used for antimicrobial activity.

Assay [5] has as its system microorganisms (e.g., bacteria, yeasts, fungi). As to the kind of experiment: Targeting peptide binding to target microorganisms (Table 3). The note with it: preferably 1x PBS; for Target(s) (microorganisms bound by the targeting peptide): peptide binding in aqueous buffers varied by peptide solubility.
Assay [6] deals with S. pneumoniae. As to the kind of experiment: Kill or inhibit growth/proliferation; morphology, biofilm and growth disruption (Tables 5, 6). Further: test concentration or dose not given here. Also noted: key: A: Peptide aggregates; B: Less hyphal formation; Clumps; Diffuse clumps and small polyps; F: Diffuse growth; H: Thin; I: Growth inhibition; Microcolony formation; Rippled; Small polyps; Thick; W: Halo formation on top, microlonies on bottom. It counts as cell-based, Streptococcus pneumoniae.

For assay [7], the system named is M. luteus. Described as above. Set-up: key: A: Peptide aggregates; B: Less hyphal formation; Clumps; Diffuse clumps and small polyps; F: Diffuse growth; H: Thin; I: Growth inhibition; Microcolony formation; Rippled; Small polyps; Thick; W: Halo formation on top, microlonies on bottom. It counts as cell-based, Micrococcus luteus. Further: test concentration or dose not given here.
For assay [8], the system named is C. jeikeium. Described as above. It is filed as cell-based, Corynebacterium jeikeium. Also noted: key: A: Peptide aggregates; B: Less hyphal formation; Clumps; Diffuse clumps and small polyps; F: Diffuse growth; H: Thin; I: Growth inhibition; Microcolony formation; Rippled; Small polyps; Thick; W: Halo formation on top, microlonies on bottom. Further: test concentration or dose not given here.
Assay [9] concerns MRSA. The description is as above. It is filed as cell-based, Methicillin-resistant Staphylococcus aureus. Also noted: key: A: Peptide aggregates; B: Less hyphal formation; Clumps; Diffuse clumps and small polyps; F: Diffuse growth; H: Thin; I: Growth inhibition; Microcolony formation; Rippled; Small polyps; Thick; W: Halo formation on top, microlonies on bottom. Further: test concentration or dose not given here.
Assay [10] relates to E. faecalis. The description is as above. It counts as cell-based, Enterococcus faecalis. Set-up: key: A: Peptide aggregates; B: Less hyphal formation; Clumps; Diffuse clumps and small polyps; F: Diffuse growth; H: Thin; I: Growth inhibition; Microcolony formation; Rippled; Small polyps; Thick; W: Halo formation on top, microlonies on bottom.
Assay [11] deals with C. albicans. Described as above. It is filed as cell-based, Candida albicans. Also noted: key: A: Peptide aggregates; B: Less hyphal formation; Clumps; Diffuse clumps and small polyps; F: Diffuse growth; H: Thin; I: Growth inhibition; Microcolony formation; Rippled; Small polyps; Thick; W: Halo formation on top, microlonies on bottom.
[12] abbreviates: microorganism(s) the targeting peptide binds, peptide binding conducted in aqueous buffers varied by peptide solubility.

“Also recorded” adds a separate entry of the source.
Wherever Organism, effect (morphology, biofilm and growth disruption) is given: test concentration or dose not given here.
Wherever Organism, effect is given: test concentration or dose not given here.

As for “PF-061: peptide having multiple activities (chain 1 GYNSYKAVQDVKTHSEEQRVTAKK; chain 2 GYNSYKAVQDVKTHSEEQRVTAKK; Peptide with targeting and/or antimicrobial activity)”, the “Organism, effect” value was “C. jejuni (R)” in [1], “S. epidermidis (R)” in assay [2], “B. subtilis (R)” in [3] and “S. pneumoniae (R)” in [6]. Further, the Activities result in assay [4] is recorded as “G B”. For the same substance, in assay [5] (microorganism the targeting peptide binds, binding in aqueous buffers varied by peptide solubility), the “Target(s)” value is on record as “S. epidermidis; also recorded: S. pneumoniae”.

Take “PF-145: peptide having multiple activities (GIVLTGRAGLVSGACSMALGVGLG; Peptide with targeting and/or antimicrobial activity)”: the “Organism, effect” value was “C. jejuni (R)” in assay [1]; “S. epidermidis (D)” in [2]; “B. subtilis (C)” in assay [3]; “M. luteus (A)” in [7]; “C. jeikeium (R)” in assay [8]; “MRSA (M)” in [9]. Further, the “Organism, effect” value in assay [6] was “S. pneumoniae (R)”. Besides, in assay [4], the Activities result was “G B”.

In the case of “PF-171: peptide having multiple activities (TQVTLCRTW; Peptide with targeting and/or antimicrobial activity)”, the “Organism, effect” value is “C. jejuni (R)” in [1]; “S. epidermidis (R)” in [2]; “B. subtilis (D)” in assay [3]; “M. luteus (R)” in [7]; “MRSA (M)” in assay [9]; “S. pneumoniae (D)” in assay [6]. Further, the Activities result in [4] was “G B”. In addition, the “Target(s)” value in assay [5] (microorganism(s) the targeting peptide binds, binding in aqueous buffers depending on peptide solubility) is given as “S. epidermidis; also recorded: E. coli; also recorded: P. aeruginosa; also recorded: S. pneumoniae”.

Consider “PF-548: peptide having multiple activities (chain 1 ARPIADLIHFNSTTVTASGDVYYGPG; chain 2 ARPIADLIHFNSTTVTASGDVYYGPG; Peptide with targeting and/or antimicrobial activity)”, for which the “Organism, effect” value in assay [1] is “C. jejuni (D)”; in [2], “S. epidermidis (M)”; in [3], “B. subtilis (C)”; in assay [7], “M. luteus (A)”; in [8] it was “C. jeikeium (R)”; in assay [9], “MRSA (M)”. In addition, in assay [6], the “Organism, effect” value is on record as “S. pneumoniae (D)”. Further, the Activities result in assay [4] is on record as “G B”.

For the substance “PF-553: peptide having multiple activities (chain 1 LTIVGNALQQKNQKLLLNQKKITSLG; chain 2 LTIVGNALQQKNQKLLLNQKKITSLG; Peptide with targeting and/or antimicrobial activity)”, the “Organism, effect” value in assay [3] is recorded as “B. subtilis (D)”; in [8], “C. jeikeium (R)”; in assay [9], “MRSA (M)”; in [6], “S. pneumoniae (R)”. Besides, in [4], the Activities result is reported as “G B”. The “Target(s)” value in assay [5] (setting [12]) was “S. epidermidis and E. coli and P. aeruginosa and C. albicans and MRSA and S. pneumoniae and C. jeikeium”.

Turning to “PF-556: peptide having multiple activities (chain 1 SLQIRMNTLTAAKASIEAA; chain 2 SLQIRMNTLTAAKASIEAA; Peptide with targeting and/or antimicrobial activity)”, the “Organism, effect” value in assay [1] is “C. jejuni (R)”; in assay [2], “S. epidermidis (A)”; in assay [3], “B. subtilis (C)”; in [7] it was “M. luteus (A)”; in [10], “E. faecalis (A)”; in assay [8] it was “C. jeikeium (D)”. The “Organism, effect” value in [9] is listed as “MRSA (M)”; in assay [6], “S. pneumoniae (D)”. In addition, the Activities entry in assay [4] was “G B”.

On to “PF-558: peptide having multiple activities (chain 1 ADAPPPLIVRYS; chain 2 ADAPPPLIVRYS; Peptide with targeting and/or antimicrobial activity)”, for which the “Organism, effect” value in [1] is listed as “C. jejuni (H)”; in [2], “S. epidermidis (M)”; in assay [3], “B. subtilis (D)”; in assay [9], “MRSA (C)”; in assay [6], “S. pneumoniae (R)”. In addition, in [4], the Activities result is given as “G B”. In addition, in assay [5] (setting [12]), the “Target(s)” value is given as “S. epidermidis; also recorded: E. coli; also recorded: C. albicans; also recorded: C. jeikeium; also recorded: C. jejuni”.

Take “PF-564: peptide having multiple activities (chain 1 TIILNDQINSLQERLNKLNAETDRR; chain 2 TIILNDQINSLQERLNKLNAETDRR; Peptide with targeting and/or antimicrobial activity)”: the “Organism, effect” value in assay [1] is “C. jejuni (R)”; in [3] it was “B. subtilis (D)”; in assay [8], “C. jeikeium (R)”; in [9] it was “MRSA (C)”. The Activities entry in assay [4] is “G B”. Besides, the “Target(s)” value in assay [5] (setting [12]) was “S. epidermidis; also recorded: C. albicans; also recorded: S. pneumoniae; also recorded: C. jeikeium”.

On to “PF-566: peptide having multiple activities (chain 1 EAQQVTQQLGADFNAITTPTATKV; chain 2 EAQQVTQQLGADFNAITTPTATKV; Peptide with targeting and/or antimicrobial activity)”, for which the “Organism, effect” value is “C. jejuni (D)” in assay [1]; “B. subtilis (C)” in assay [3]; “M. luteus (D)” in assay [7]; “C. jeikeium (C)” in assay [8]; “MRSA (M)” in assay [9]; “S. pneumoniae (D)” in assay [6]. Moreover, the Activities result in assay [4] was “G B”. For the same substance, the “Target(s)” value in assay [5] (setting [12]) is “P. mirabilis; also recorded: S. pneumoniae”.

For the substance “PF-645 (chain 1 SNSVQQG; chain 2 SNSVQQG; Peptide with targeting and/or antimicrobial activity)”, the results for the “Organism, effect” value in [11] and in assay [6] were “C. albicans (B)” and “S. pneumoniae (I)”, respectively. In assay [5], the “Target(s) (microorganisms bound by the targeting peptide)” value is on record as “Mycobacteria spp”.

As to “PF-646 (chain 1 APASPGRRPG; chain 2 APASPGRRPG; Peptide with targeting and/or antimicrobial activity)”, the “Organism, effect” value in [11] is recorded as “C. albicans (B)”. In addition, the “Target(s) (microorganisms bound by the targeting peptide)” value in assay [5] is recorded as “Mycobacteria spp”. Moreover, the “Organism, effect (morphology, biofilm and growth disruption)” value in [6] is listed as “S. pneumoniae (H)”.

Turning to “PF-647 (chain 1 GTFLGQKCAAATAS; chain 2 GTFLGQKCAAATAS; Peptide with targeting and/or antimicrobial activity)”, the “Organism, effect (morphology, biofilm and growth disruption)” value is reported as “C. albicans (B)” in [11] and “S. pneumoniae (R)” in assay [6]. Also, in [5], the “Target(s) (microorganisms bound by the targeting peptide)” value is “Mycobacteria spp”.

Turning to “PF-697 (chain 1 RADARAK; chain 2 RADARAK; Peptide with targeting and/or antimicrobial activity)”, the “Organism, effect (morphology, biofilm and growth disruption)” value in assay [11] was “C. albicans (H)”; in assay [6], “S. pneumoniae (H)”. Further, the “Target(s) (microorganisms bound by the targeting peptide)” value in [5] is listed as “Mycobacteria spp”.

(Values after patent US20110039762A1, “TARGETED ANTIMICROBIAL MOIETIES” (C3 JIAN, INC., priority 2009, published 2011).)
